According to ChEMBL document CHEMBL2203067, “Peptide-chlorambucil conjugates combat pgp-dependent drug efflux” (ACS Med Chem Lett, 2011):
Activity calls are given as the source filed them. The rule behind the calls is not given here.

How the values were obtained:
A2780 [1] = assay: Inhibition of Pgp-mediated drug efflux in adriamycin-resistant human A2780 cells assessed as increase in intracellular adriamycin level at 5 uM after 40 mins by flow cytometry analysis; format: cell-based
[2] = Cellular uptake in adriamycin-resistant human A2780 cells plasma membrane at 5 uM after 5 mins by confocal microscopic analysis; format: ADME, cell-based; details: a2780, 5 min
A2780 [3] = assay: Cellular uptake in adriamycin-resistant human A2780 cells at 20 uM after 5 mins by confocal microscopic analysis; format: ADME, cell-based; details: a2780, 5 min
A2780 [4] = assay: Inhibition of Pgp-mediated drug efflux in human A2780 cells overexpressing Pgp assessed as increase in intracellular adriamycin level at 5 uM after 40 mins by flow cytometry analysis; format: cell-based
A2780 [5] = assay: Inhibition of Pgp-mediated drug efflux in adriamycin-resistant human A2780 cells assessed as increase in adriamycin-induced cytotoxicity at 5 uM after 1 hr by CCK-8 assay; format: cell-based
A2780 [6] = assay: Inhibition of Pgp-mediated drug efflux in adriamycin-resistant human A2780 cells assessed as increase in adriamycin-induced cytotoxicity at 5 uM after 8 hrs by CCK-8 assay; format: cell-based
A2780 [7] = assay: Inhibition of Pgp-mediated drug efflux in adriamycin-resistant human A2780 cells assessed as increase in adriamycin uptake at 5 uM after 8 hrs by flow cytometry analysis; format: cell-based
A2780 [8] = assay: Inhibition of Pgp-mediated drug efflux in adriamycin-resistant human A2780 cells assessed as increase in adriamycin uptake at 5 uM after 1 hr by flow cytometry analysis; format: cell-based
[9] = Cellular uptake in adriamycin-resistant human A2780 cell mitochondria at 5 uM after 40 mins by confocal microscopic analysis; format: ADME; details: a2780, 40 min
A2780 [10] = assay: Inhibition of Pgp-mediated drug efflux in adriamycin-resistant human A2780 cells assessed as increase of MitoTracker accumulation at 5 uM after 5 mins by confocal microscopic analysis; format: cell-based
A2780 [11] = assay: Inhibition of Pgp in adriamycin-resistant human A2780 cells assessed as co-immunoprecipitation with biotin-Fxr3kCbl at 5 uM after 1 hr by immunoblotting analysis; format: cell-based
[12] = Cellular uptake in adriamycin-resistant human A2780 cell plasma membrane at 5 uM after 40 mins by confocal microscopic analysis; format: ADME, cell-based; details: a2780, 40 min
A2780 [13] = assay: Inhibition of Pgp-mediated drug efflux in adriamycin-resistant human A2780 cells assessed as localization of MitoTracker from plasma membrane to intracellular sites at 5 uM after 5 mins by confocal microscopic analysis; format: cell-based
[14] = molecular target: ATP-dependent translocase ABCB1 (Homo sapiens, UniProt P08183); assay: Inhibition of p-glycoprotein in adriamycin-resistant human A2780 cell at 5 uM after 40 mins by confocal microscopic analysis; details: a2780, 40 min
A2780 [15] = assay: Inhibition of Pgp-mediated drug efflux in adriamycin-resistant human A2780 cells assessed as localization of adriamycin from plasma membrane to intracellular sites at 5 uM after 5 mins by confocal microscopic analysis; format: cell-based
[16] = Cellular uptake in wild type human A2780 cell mitochondria at 5 uM after 40 mins by confocal microscopic analysis; format: ADME; details: a2780, 40 min
A2780 [17] = assay: Inhibition of Pgp-mediated drug efflux in adriamycin-resistant human A2780 cells assessed as increase in intracellular actinomycin level at 5 uM after 40 mins by flow cytometry analysis; format: cell-based

Chain of ATP-dependent translocase ABCB1 (P08183 whole entry): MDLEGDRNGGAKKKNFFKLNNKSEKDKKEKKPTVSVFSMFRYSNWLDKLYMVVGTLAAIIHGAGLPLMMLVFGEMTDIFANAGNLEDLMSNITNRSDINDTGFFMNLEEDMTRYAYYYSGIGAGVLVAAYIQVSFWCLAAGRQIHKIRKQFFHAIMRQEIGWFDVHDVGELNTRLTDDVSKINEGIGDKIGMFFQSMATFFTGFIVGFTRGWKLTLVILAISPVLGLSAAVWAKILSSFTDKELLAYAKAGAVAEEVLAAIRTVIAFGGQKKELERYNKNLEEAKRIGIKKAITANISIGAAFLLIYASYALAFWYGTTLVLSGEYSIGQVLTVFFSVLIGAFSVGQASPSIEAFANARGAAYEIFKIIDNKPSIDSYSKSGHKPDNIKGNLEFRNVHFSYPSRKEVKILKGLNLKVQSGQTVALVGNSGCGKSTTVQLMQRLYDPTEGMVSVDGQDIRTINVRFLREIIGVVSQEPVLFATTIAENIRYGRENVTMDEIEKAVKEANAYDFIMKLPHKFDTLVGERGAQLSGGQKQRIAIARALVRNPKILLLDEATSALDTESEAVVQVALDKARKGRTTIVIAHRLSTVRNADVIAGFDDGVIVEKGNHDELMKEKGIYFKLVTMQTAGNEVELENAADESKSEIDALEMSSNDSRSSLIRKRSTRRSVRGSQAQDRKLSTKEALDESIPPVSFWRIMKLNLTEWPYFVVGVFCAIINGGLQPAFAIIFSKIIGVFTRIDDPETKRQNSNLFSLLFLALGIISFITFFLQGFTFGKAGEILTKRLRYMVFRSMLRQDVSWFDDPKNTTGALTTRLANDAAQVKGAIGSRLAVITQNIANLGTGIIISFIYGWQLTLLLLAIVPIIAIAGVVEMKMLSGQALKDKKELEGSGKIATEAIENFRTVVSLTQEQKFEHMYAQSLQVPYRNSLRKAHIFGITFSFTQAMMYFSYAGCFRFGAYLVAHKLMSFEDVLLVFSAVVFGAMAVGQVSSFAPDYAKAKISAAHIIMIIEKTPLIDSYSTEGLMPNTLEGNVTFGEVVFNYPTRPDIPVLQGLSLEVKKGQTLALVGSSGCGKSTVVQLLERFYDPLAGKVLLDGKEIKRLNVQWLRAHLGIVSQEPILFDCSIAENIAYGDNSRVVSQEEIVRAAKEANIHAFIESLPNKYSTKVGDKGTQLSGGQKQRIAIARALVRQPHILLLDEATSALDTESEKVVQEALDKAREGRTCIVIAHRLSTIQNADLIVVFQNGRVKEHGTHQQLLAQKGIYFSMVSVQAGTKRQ

Structure (SMILES)	inhibition (A2780 [1])	Drug uptake [2]	inhibition (A2780 [4])	inhibition (A2780 [5]) [%]	inhibition (A2780 [6]) [%]	inhibition (A2780 [7])	inhibition (A2780 [8])	also measured
CN1/C(=C\c2cc[n+](CCCCCC(=O)N[C@@H](CCCNC(=N)N)C(=O)N[C@@H](CCCNC(=N)N)C(=O)N[C@@H](CCCNC(=N)N)C(=O)N[C@@H](CCCNC(=N)N)C(=O)N[C@@H](CCCNC(=N)N)C(=O)N[C@@H](CCCNC(=N)N)C(=O)N[C@H](CCCCNC(=O)CCCc3ccc(N(CCCl)CCCl)cc3)C(N)=O)c3ccccc23)Sc2ccccc21	Active	Not Active	–	–	–	–	–	Drug uptake (A2780 [3]): Not Active
CN1/C(=C\c2cc[n+](CCCCCC(=O)N[C@@H](Cc3ccc(O)cc3)C(=O)N[C@H](CCCNC(=N)N)C(=O)N[C@@H](Cc3ccc(O)cc3)C(=O)N[C@H](CCCNC(=N)N)C(=O)N[C@@H](Cc3ccc(O)cc3)C(=O)N[C@H](CCCNC(=N)N)C(=O)N[C@H](CCCCNC(=O)CCCc3ccc(N(CCCl)CCCl)cc3)C(N)=O)c3ccccc23)Sc2ccccc21	Active	Not Active	–	–	–	–	–	Drug uptake (A2780 [3]): Not Active
O=C(O)CCCc1ccc(N(CCCl)CCCl)cc1	–	–	inactive	–	–	–	–	–
CN1/C(=C\c2cc[n+](CCCCCC(=O)N[C@@H](Cc3ccncc3)C(=O)N[C@H](CCCNC(=N)N)C(=O)N[C@@H](Cc3ccncc3)C(=O)N[C@H](CCCNC(=N)N)C(=O)N[C@@H](Cc3ccncc3)C(=O)N[C@H](CCCNC(=N)N)C(=O)N[C@H](CCCCNC(=O)CCCc3ccc(N(CCCl)CCCl)cc3)C(N)=O)c3ccccc23)Sc2ccccc21	Active	Active	–	50	50	inactive	Active	–
CN1/C(=C\c2cc[n+](CCCCCC(=O)N[C@@H](CC3CCCCC3)C(=O)N[C@H](CCCNC(=N)N)C(=O)N[C@@H](CC3CCCCC3)C(=O)N[C@H](CCCNC(=N)N)C(=O)N[C@@H](CC3CCCCC3)C(=O)N[C@H](CCCNC(=N)N)C(=O)N[C@@H](CCCCNC(=O)CCCc3ccc(N(CCCl)CCCl)cc3)C(N)=O)c3ccccc23)Sc2ccccc21	–	–	Active	–	–	–	–	Drug uptake [9]: Not Active; inhibition (A2780 [10]): inactive; inhibition (A2780 [11]): Active; Drug uptake [12]: Active; inhibition (A2780 [13]): Active; inhibition (INH) [14]: Active; inhibition (A2780 [15]): Active; Drug uptake [16]: Active
CN1/C(=C\c2cc[n+](CCCCCC(=O)N[C@@H](Cc3ccccc3)C(=O)N[C@H](CCCNC(=N)N)C(=O)N[C@@H](Cc3ccccc3)C(=O)N[C@H](CCCNC(=N)N)C(=O)N[C@@H](Cc3ccccc3)C(=O)N[C@H](CCCNC(=N)N)C(=O)N[C@H](CCCCNC(=O)CCCc3ccc(N(CCCl)CCCl)cc3)C(N)=O)c3ccccc23)Sc2ccccc21	Active	Active	–	50	50	inactive	Active	–
CN1/C(=C\c2cc[n+](CCCCCC(=O)N[C@@H](CC3CCCCC3)C(=O)N[C@H](CCCNC(=N)N)C(=O)N[C@@H](CC3CCCCC3)C(=O)N[C@H](CCCNC(=N)N)C(=O)N[C@@H](CC3CCCCC3)C(=O)N[C@H](CCCNC(=N)N)C(=O)N[C@H](CCCCNC(=O)CCCc3ccc(N(CCCl)CCCl)cc3)C(N)=O)c3ccccc23)Sc2ccccc21	Active	Active	–	–	–	–	–	inhibition (A2780 [17]): Active
N=C(N)NCCC[C@@H](NC(=O)[C@H](CC1CCCCC1)NC(=O)[C@@H](CCCNC(=N)N)NC(=O)[C@H](CC1CCCCC1)NC(=O)[C@@H](CCCNC(=N)N)NC(=O)[C@@H](N)CC1CCCCC1)C(=O)N[C@@H](CCCCN)C(N)=O	–	–	inactive	–	–	–	–	–
CN1/C(=C\c2cc[n+](CCCCCC(=O)N[C@@H](CC3CCCCC3)C(=O)N[C@H](CCCCN)C(=O)N[C@@H](CC3CCCCC3)C(=O)N[C@H](CCCCN)C(=O)N[C@@H](CC3CCCCC3)C(=O)N[C@H](CCCCN)C(=O)N[C@H](CCCCNC(=O)CCCc3ccc(N(CCCl)CCCl)cc3)C(N)=O)c3ccccc23)Sc2ccccc21	Active	–	–	50	50	inactive	Active	–
